Results from patent US6749863B1, “Targeted liposome gene delivery” (Georgetown University, priority 1997, dated 2004).

Columns and labels:
MDA-MB-231 = test: Chemosensitization, XTT cell proliferation assay; type: cell-based; details: Homo sapiens; drug alone on untransfected MDA-MB-231 cells
Description: (§1) This example summarizes part of the in vitro p53-mediated chemosensitization experiments (XTT assays) performed on the cell lines for which transfection with transferrin-coupled or folate-coupled liposomes is described in Example 17. […] The chemosensitization effect is dependent upon the liposome used and the p53 DNA dose. VIN=vinblastine; DXR=doxorubicin; CDDP=cisplatin. Fold Sensitization is calculated from the individual IC50 values. DNA dose=ug of DNA applied per well (approximately 1×10^4 cells/well in a 96-well plate).

PANC-1 = test: Chemosensitization, XTT cell proliferation assay; type: cell-based; details: Homo sapiens, PANC-1, drug alone on untransfected PANC-1 cells
Description: as §1
Here also a greater than 70 fold increase in drug sensitivity was induced by treatment with LipF(B)-AS-RAS.

PANC-1 xenograft tumors = test: Systemic LipF-p53 plus chemotherapy, xenograft growth; type: in vivo, athymic nude mice; details: single agent only
Text: Xenograft tumors of pancreatic cancer cell line PANC-1 were induced by the subcutaneous inoculation of greater than 1×10^7 cells onto athymic nude mice. When the tumors reached approximately 500-1000 mm^3, the tumors were excised and minced into small (<1 mm) pieces. These freshly prepared tumor pieces (suspended in PBS) were inoculated subcutaneously (using a 14 g needle) onto the flanks of athymic nude mice. When the tumors reached an average of 100 mm^3 in volume, treatment was begun. The animals received, via intravenous injection, LipF(B)-p53. This liposome complex was administered twice/week to a total of 7 injections. The chemotherapeutic agent gemcitabine was also administered intraperitoneally at a dose of either 60mg/kg or 120mg/kg twice weekly. A total of 13 gemcitabine injections were administered. One group of animals also received twice weekly intratumoral injections of LipF(B)-p53 (a total 6) in addition to the intravenous administration of the LipF(B)-p53 and gemcitabine. […] This was particularly evident in the group that received both i.v. and i.t injections.

U87 = test: Chemosensitization, XTT cell proliferation assay; type: cell-based; details: Homo sapiens, U-87 MG, drug alone on untransfected U87 cells
Description: as §1
(§2) The ability of the LipF(B)-delivered AS-HER-2 to sensitize MDA-MB-435, JSQ-3, DU145 and U87 (Human glioblastoma) cells to chemotherapeutic agents was evaluated. Sensitivity was determined using the XTT cell proliferation assay. […] Comparison of the cells treated with LipF(B) mediated AS-HER-2, to that of cells treated with a LipF(B) control oligonucleotide (SC) indicated a greater than 30 fold increase in sensitization of 435 cells to taxotere. In contrast, only a 2.5 fold level of sensitization was evident after transfection with AS-HER-2 using the commercial Lipofectin (Life Technologies, Inc.). Treatment of JSQ-3 cells with LipF(E)-AS-HER-2 increased the effect of docetaxel almost 25 fold. […] A two fold increase in sensitization of DU145 cells to docetaxel was seen after treatment with LipF(E)-AS-HER-2.

JSQ-3 = test: Chemosensitization, XTT cell proliferation assay; type: cell-based; details: Homo sapiens, drug alone on untransfected JSQ-3 cells
Description: In addition to radiation, chemotherapy is becoming more commonly used in the treatment of SCCHN. As lack of functional wtp53 has been associated with failure to respond to chemotherapy, in this example we examined the effect of ligand-facilitated liposome mediated wtp53 gene therapy on sensitization of SCCHN cell line JSQ-3 to chemotherapeutic agents. 1×10^4 cells were plated/well of a 96-well plate. 24 hours later, the cells were transfected with LipT(A)-p53. Two days after transfection, anti-neoplastic agents were added at increasing concentrations (in triplicate). 4-6 days later the XTT cell proliferation assay was performed and IC50 values, the drug concentration yielding 50% growth inhibition, calculated.
as §1, with “DNA dose=ug of DNA applied per well (approximately 1×10^4 cells/well in a 96-well plate).” left out
The ability of the LipF(B)-delivered AS-HER-2 to sensitize MDA-MB-435, JSQ-3, DU145 and U87 (Human glioblastoma) cells to chemotherapeutic agents was evaluated. Sensitivity was determined using the XTT cell proliferation assay. […]

DU145 = test: Chemosensitization, XTT cell proliferation assay; type: cell-based; details: Homo sapiens, DU-145, drug alone on untransfected DU145 cells
Description: as §1, §2

DU145 xenograft tumors = test: Systemic LipF-p53 plus chemotherapy, xenograft growth; type: in vivo, mice; details: complex twice/week, 5 injections, or docetaxel 10 mg/kg, alone
Description: Mice bearing subcutaneous DU145 xenograft tumors of approximately 100 mm^3 were injected, via the tail vein, with a ligand-liposome p53 complex using folate as the targeting ligand (LipF(B)-p53). This liposome complex was administered twice/week (to a total of 5 injections) along with the chemotherapeutic agent docetaxel at a dose of 10 mg/kg.

[1] = test system: MDA-MB-435 mammary fat pad xenograft tumors; test: Chemosensitization of xenograft tumors in vivo; design: species or system athymic nude mice; details: AS-HER-2 only or docetaxel only
Description: Mice bearing subcutaneous mammary fat pad MDA-MB-435 tumors of approximately 100 mm^3 were i.v. injected via the tail vein with LipF(C)-p53 every 3-4 days for a total of eight injections. Doxorubicin (Dxr) (10 mg/kg) was injected i.v. weekly for 4 weeks. […] In a second experiment, two separate liposome compositions [LipF(E) and LipF(C)] were employed.
The ability of the LipF(B)-AS-HER-2 to target and sensitize preexisting MDA-MB-435 xenograft tumors to the chemotherapeutic agent docetaxel in vivo was examined by assessing tumor regression as well as tumor growth inhibition. Female athymic (Ncr nu/nu) mice carrying MDA-MB-435 mammary fat pad xenograft tumors of approximately 70 mm^3 were intravenously injected, via the tail vein, with LipF(B)-AS-HER-2 (at approximately 0.6 mM of oligonucleotides) every other day to a total of 11 injections. A total of 11 intravenous doses of docetaxel (approximately 20 mg/kg/dose every other day) were also administered to the animals. […] Therefore, the systemically delivered, targeted liposome delivery of antisense oligonucleotides, in this case AS-HER-2, was clearly able to sensitize these tumors to the chemotherapeutic agent, strongly inhibiting tumor growth almost three weeks after the end of treatment.

SMILES | IC50 (MDA-MB-231) | IC50 (PANC-1) | IC50 (DU145) | also measured
COc1cccc2c1C(=O)c1c(O)c3c(c(O)c1C2=O)C[C@@](O)(C(=O)CO)C[C@@H]3O[C@H]1C[C@H](N)[C@H](O)[C@H](C)O1 [DXR, doxorubicin] | 270 nM |  |  | 
Nc1ccn([C@@H]2O[C@H](CO)[C@@H](O)C2(F)F)c(=O)n1 [Gemzar, gemcitabine] |  | 800 nM |  | Outcome of control groups (single treatments) (PANC-1 xenograft tumors): euthanized due to tumor burden by day 54; IC50 (U87): 1280 nM
CC(=O)O[C@H]1C(=O)[C@@]2(C)[C@H]([C@H](OC(=O)c3ccccc3)[C@]3(O)C[C@H](OC(=O)[C@H](O)[C@@H](NC(=O)c4ccccc4)c4ccccc4)C(C)=C1C3(C)C)[C@]1(OC(C)=O)CO[C@@H]1C[C@@H]2O [Taxol] | 52 nM |  | 13.2 nM | IC50 (JSQ-3): 15.8 nM
CC(=O)O[C@@]12CO[C@@H]1C[C@H](O)[C@@]1(C)C(=O)[C@H](O)C3=C(C)[C@@H](OC(=O)[C@H](O)[C@@H](NC(=O)OC(C)(C)C)c4ccccc4)C[C@@](O)([C@@H](OC(=O)c4ccccc4)[C@H]21)C3(C)C [Taxotere, docetaxel] |  | 11.5 nM | 42 nM | Tumor growth, single treatment (DU145 xenograft tumors): neither the LipF(B)-p53 complex alone, nor docetaxel alone had any substantial effect on tumor growth; Tumor growth, single treatment [1]: some docetaxel effect
CC[C@]1(O)C[C@@H]2CN(CCc3c([nH]c4ccccc34)[C@@](C(=O)OC)(c3cc4c(cc3OC)N(C)[C@H]3[C@@](O)(C(=O)OC)[C@H](OC(C)=O)[C@]5(CC)C=CCN6CC[C@]43[C@@H]65)C2)C1 [Vln, vinblastine] | 1.81 nM |  |  | 
